# Test results: the supplement of paper PMC11061612
# Key:
# Capivasertib = compound: C1CN(CCC1(C(=O)N[C@@H](CCO)C2=CC=C(C=C2)Cl)N)C3=NC=NC4=C3C=CN4 [Capivasertib]; settings: max 10 µM
# Procedure, shortened: (§1)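 In 1536-well plates, cancer cell lines in 7.5 μl DMEM/F12 or RPMI with 10% FBS spent 24 hours at 37°C and 5% CO2 and were then dosed for 72 hours with final DMSO typically 0.2%. Viability was read by CellTiter-Glo 2.0 luminescence and scaled between blank-well and DMSO-well means. The single-agent IC50 was fitted from dose responses using a logistic curve in a non-linear mixed effects model, and that logistic curve had two parameters.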
# AZD1775 = compound: C=CCn1c(=O)c2cnc(Nc3ccc(N4CCN(C)CC4)cc3)nc2n1-c1cccc(C(C)(C)O)n1 [AZD1775]; settings: max 3 µM
# Procedure, shortened: as §1
# Trametinib = compound: CC(=O)Nc1cccc(-n2c(=O)n(C3CC3)c(=O)c3c(Nc4ccc(I)cc4F)n(C)c(=O)c(C)c32)c1 [Trametinib]; settings: max 1 µM
# Procedure, shortened: as §1
# Palbociclib = compound: CC(=O)c1c(C)c2cnc(Nc3ccc(N4CCNCC4)cn3)nc2n(C2CCCC2)c1=O [Palbociclib]; settings: max 10 µM
# Procedure, shortened: as §1
# AZD1390 = compound: CC(C)n1c(=O)n(C)c2cnc3cc(F)c(-c4ccc(OCCCN5CCCCC5)nc4)cc3c21 [AZD1390]; settings: max 0.3 µM
# Procedure, shortened: as §1
# Venetoclax = compound: CC1(C)CCC(CN2CCN(c3ccc(C(=O)NS(=O)(=O)c4ccc(NCC5CCOCC5)c([N+](=O)[O-])c4)c(Oc4cnc5[nH]ccc5c4)c3)CC2)=C(c2ccc(Cl)cc2)C1 [Venetoclax]; settings: max 1 µM
# Procedure, shortened: as §1
# Dasatinib = compound: CC1=C(C(=CC=C1)Cl)NC(=O)C2=CN=C(S2)NC3=CC(=NC(=N3)C)N4CCN(CC4)CCO [Dasatinib]; settings: max 2 µM
# Procedure, shortened: as §1
# SG3199 = compound: CC1=CN2[C@@H](C1)C=NC3=CC(=C(C=C3C2=O)OC)OCCCCCOC4=C(C=C5C(=C4)N=C[C@@H]6CC(=CN6C5=O)C)OC [SG3199]; settings: max 0.001 µM
# Procedure, shortened: as §1
# AZD2811 = compound: CCN(CCO)CCCOc1ccc2c(Nc3cc(CC(=O)Nc4cccc(F)c4)[nH]n3)ncnc2c1 [AZD2811]; settings: max 1 µM
# Procedure, shortened: as §1
# SN-38 = compound: CCc1c2c(nc3ccc(O)cc13)-c1cc3c(c(=O)n1C2)COC(=O)[C@]3(O)CC [SN-38]; settings: max 0.3 µM
# Procedure, shortened: as §1
# AZD0156 = compound: CN(C)CCCOc1ccc(-c2ccc3ncc4c(c3c2)n(C2CCOCC2)c(=O)n4C)cn1 [AZD0156]; settings: max 3 µM
# Procedure, shortened: as §1
# AZD4320 = compound: CN(CC[C@H](CSC1=CC=CC=C1)NC2=C(C=C(C=C2)S(=O)(=O)NC(=O)C3=CC=C(C=C3)N4CCC(CC4)[C@H](C5=CC=CC=C5C6=CC=C(C=C6)Cl)O)S(=O)(=O)C(F)(F)F)CCO [AZD4320]; settings: max 1 µM
# Procedure, shortened: as §1
# Alisertib = compound: COc1cc(Nc2ncc3c(n2)-c2ccc(Cl)cc2C(c2c(F)cccc2OC)=NC3)ccc1C(=O)O [Alisertib]; settings: max 10 µM
# Procedure, shortened: as §1
# Gefitinib = compound: COc1cc2ncnc(Nc3ccc(F)c(Cl)c3)c2cc1OCCCN1CCOCC1 [Gefitinib]; settings: max 10 µM
# Procedure, shortened: as §1
# Prexasertib = compound: COc1cccc(OCCCN)c1-c1cc(Nc2cnc(C#N)cn2)n[nH]1 [Prexasertib]; settings: max 1 µM
# Procedure, shortened: as §1
# Doxorubicin = compound: COc1cccc2c1C(=O)c1c(O)c3c(c(O)c1C2=O)C[C@@](O)(C(=O)CO)C[C@@H]3O[C@H]1C[C@H](N)[C@H](O)[C@H](C)O1 [Doxorubicin]; settings: max 1 µM
# Procedure, shortened: as §1
# AZD5153 = compound: COc1nnc2ccc(N3CCC(c4ccc(OCCN5CCN(C)C(=O)[C@H]5C)cc4)CC3)nn12 [AZD5153]; settings: max 1 µM
# Procedure, shortened: as §1
# Lapatinib = compound: CS(=O)(=O)CCNCc1ccc(-c2ccc3ncnc(Nc4ccc(OCc5cccc(F)c5)c(Cl)c4)c3c2)o1 [Lapatinib]; settings: max 10 µM
# Procedure, shortened: as §1
# AZD8186 = compound: C[C@@H](Nc1cc(F)cc(F)c1)c1cc(C(=O)N(C)C)cc2c(=O)cc(N3CCOCC3)oc12 [AZD8186]; settings: max 3 µM
# Procedure, shortened: as §1
# Crizotinib = compound: C[C@@H](Oc1cc(-c2cnn(C3CCNCC3)c2)cnc1N)c1c(Cl)ccc(F)c1Cl [Crizotinib]; settings: max 10 µM
# Procedure, shortened: as §1
# Savolitinib = compound: C[C@@H](c1ccc2nccn2c1)n1nnc2ncc(-c3cnn(C)c3)nc21 [Savolitinib]; settings: max 1 µM
# Procedure, shortened: as §1
# AZD6738 = compound: C[C@@H]1COCCN1C2=NC(=NC(=C2)C3(CC3)[S@](=N)(=O)C)C4=C5C=CNC5=NC=C4 [AZD6738]; settings: max 10 µM
# Procedure, shortened: as §1
# AZD5991 = compound: Cc1c2c(nn1C)CSCc1cc(n(C)n1)CSc1cc(c3ccccc3c1)OCCCc1c(C(=O)O)n(C)c3c-2c(Cl)ccc13 [AZD5991]; settings: max 1 µM
# Procedure, shortened: as §1
# AZD7648 = compound: Cc1cc2ncnn2cc1Nc1ncc2c(n1)n(C1CCOCC1)c(=O)n2C [AZD7648]; settings: max 10 µM
# Procedure, shortened: as §1
# Taselisib = compound: Cc1nc(-c2cn3c(n2)-c2ccc(-c4cnn(C(C)(C)C(N)=O)c4)cc2OCC3)n(C(C)C)n1 [Taselisib]; settings: max 10 µM
# Procedure, shortened: as §1
# Selumetinib = compound: Cn1cnc2c(F)c(Nc3ccc(Br)cc3Cl)c(C(=O)NOCCO)cc21 [Selumetinib]; settings: max 10 µM
# Procedure, shortened: as §1
# Olaparib = compound: O=C(c1cc(Cc2n[nH]c(=O)c3ccccc23)ccc1F)N1CCN(C(=O)C2CC2)CC1 [Olaparib]; settings: max 10 µM
# Procedure, shortened: as §1
# MK-2206 = compound: NC1(c2ccc(-c3nc4ccn5c(=O)[nH]nc5c4cc3-c3ccccc3)cc2)CCC1 [MK-2206]; settings: max 10 µM
# Procedure, shortened: as §1
Cell Line,"IC50, cell viability 72 h (Capivasertib)","IC50, cell viability 72 h (AZD1775)","IC50, cell viability 72 h (Trametinib)","IC50, cell viability 72 h (Palbociclib)","IC50, cell viability 72 h (AZD1390)","IC50, cell viability 72 h (Venetoclax)","IC50, cell viability 72 h (Dasatinib)","IC50, cell viability 72 h (SG3199)","IC50, cell viability 72 h (AZD2811)","IC50, cell viability 72 h (SN-38)","IC50, cell viability 72 h (AZD0156)","IC50, cell viability 72 h (AZD4320)","IC50, cell viability 72 h (Alisertib)","IC50, cell viability 72 h (Gefitinib)","IC50, cell viability 72 h (Prexasertib)","IC50, cell viability 72 h (Doxorubicin)","IC50, cell viability 72 h (AZD5153)","IC50, cell viability 72 h (Lapatinib)","IC50, cell viability 72 h (AZD8186)","IC50, cell viability 72 h (Crizotinib)","IC50, cell viability 72 h (Savolitinib)","IC50, cell viability 72 h (AZD6738)","IC50, cell viability 72 h (AZD5991)","IC50, cell viability 72 h (AZD7648)","IC50, cell viability 72 h (Taselisib)","IC50, cell viability 72 h (Selumetinib)","IC50, cell viability 72 h (Olaparib)","IC50, cell viability 72 h (MK-2206)"
NCI-H2141 (Small Cell Lung Carcinoma),> 10000 nM,2200 nM,> 1000 nM,> 10000 nM,> 300 nM,> 1000 nM,> 2000 nM,> 1 nM,> 1000 nM,> 300 nM,> 3000 nM,307 nM,> 10000 nM,> 10000 nM,458 nM,> 1000 nM,> 1000 nM,> 10000 nM,> 3000 nM,> 10000 nM,> 1000 nM,> 10000 nM,> 1000 nM,> 10000 nM,> 10000 nM,> 10000 nM,> 10000 nM,
HCC1954 (Breast Carcinoma),3240 nM,1970 nM,> 1000 nM,> 10000 nM,> 300 nM,> 1000 nM,> 2000 nM,> 1 nM,> 1000 nM,> 300 nM,> 3000 nM,> 1000 nM,> 10000 nM,> 10000 nM,59.8 nM,> 1000 nM,> 1000 nM,6260 nM,> 3000 nM,> 10000 nM,> 1000 nM,> 10000 nM,133 nM,> 10000 nM,122 nM,> 10000 nM,> 10000 nM,> 10000 nM
LN-405 (Glioblastoma),> 10000 nM,> 3000 nM,> 1000 nM,> 10000 nM,> 300 nM,> 1000 nM,> 2000 nM,> 1 nM,> 1000 nM,> 300 nM,> 3000 nM,> 1000 nM,> 10000 nM,> 10000 nM,> 1000 nM,> 1000 nM,> 1000 nM,> 10000 nM,> 3000 nM,> 10000 nM,> 1000 nM,> 10000 nM,> 1000 nM,> 10000 nM,6550 nM,> 10000 nM,> 10000 nM,> 10000 nM
NCI-H1650 (Lung Adenocarcinoma),> 10000 nM,> 3000 nM,> 1000 nM,> 10000 nM,> 300 nM,> 1000 nM,> 2000 nM,> 1 nM,> 1000 nM,> 300 nM,> 3000 nM,> 1000 nM,> 10000 nM,> 10000 nM,472 nM,> 1000 nM,> 1000 nM,> 10000 nM,> 3000 nM,> 10000 nM,> 1000 nM,> 10000 nM,> 1000 nM,> 10000 nM,> 10000 nM,> 10000 nM,> 10000 nM,
SK-MG-1 (Low Grade Glioma),> 10000 nM,> 3000 nM,> 1000 nM,> 10000 nM,> 300 nM,> 1000 nM,886 nM,> 1 nM,> 1000 nM,60 nM,> 3000 nM,> 1000 nM,> 10000 nM,> 10000 nM,82.8 nM,> 1000 nM,> 1000 nM,> 10000 nM,2730 nM,> 10000 nM,> 1000 nM,> 10000 nM,> 1000 nM,> 10000 nM,1620 nM,> 10000 nM,> 10000 nM,
ARH-77 (Non-Cancerous),1760 nM,189 nM,> 1000 nM,> 10000 nM,> 300 nM,> 1000 nM,233 nM,> 1 nM,> 1000 nM,6.68 nM,1790 nM,100 nM,1170 nM,> 10000 nM,15.5 nM,143 nM,61.8 nM,8040 nM,1270 nM,> 10000 nM,> 1000 nM,1850 nM,229 nM,> 10000 nM,528 nM,> 10000 nM,> 10000 nM,
